Experimental data from patent US8039464B2, “Muscarinic antagonists with PARP and SIR modulating activity as agents for inflammatory diseases” (ProteoSys AG, priority 2004, dated 2011).
pIC50: −log10 of the molar value. Several values for one entry are separate records, joined by “and”; a condition that tells them apart may be missing. Equal entries are not always repeated. Entries after “also recorded” stand apart in the source; their conditions may differ. Where two headings read alike, the source gives them in different places.

Columns and labels:
iNOS and Cox-2 = test: Cox-2 and iNOS expression after LPS challenge (Western blot); assay type: cell-based; settings: LPS 100 ng/ml for 60 min
Procedure: (§1) Cell pellets were further investigated by Western blot staining with anti Cox-2 and anti iNOS antibodies of 1D polyacrylamide gels.
(§2) Cell survival was assessed by Trypan Blue staining.

[1] = system: traumatic brain injury (TBI); test: Controlled Cortical Impact Injury (traumatic brain injury model); assay type: in vivo
Procedure: The model employed a direct shock to the dura via a burrhole, animals were treated according to the following schemes: Vehicle, LS-75, 8 animals per group starting the study, 2 spare animals; animals were sacrificed 44 h after injury, the endpoints were survival, post injury signs, lesion size by FLB (Fast Luxol Blue) and EMAP (Endothelial, Monocyte, Activating Peptide) staining. The dosing i.p. 100 mg/kg 2 h prior to injury; 40 mg/kg i.p. 2 h after injury; 40 mg/kg i.p. 8 h after injury; 40 mg/kg i.p. 17 h after injury; 40 mg/kg i.p. 25 h after injury; 70 mg/kg i.p. 34 h after injury; Formulation: LS-75 was prepared as a DMSO slurry (not solution) in a mortar and pestle and saline will be added slowly with grinding to reach 4% DMSO final concentration. The suspension is maintained at room temperature and the preparation used for the duration of the study. To vary dose, the volume injected may change. Volume for 100 mg/kg was be 4 mL/kg.

PARP-1 = molecular target: T1, PARP-1 (Homo sapiens, UniProt P09874); test: PARP inhibition assay (R&D Systems, Cat. No. TA4669); assay type: biochemical
T1 construct: purchased R&D Systems TA4669
T1 sequence (P09874 whole entry): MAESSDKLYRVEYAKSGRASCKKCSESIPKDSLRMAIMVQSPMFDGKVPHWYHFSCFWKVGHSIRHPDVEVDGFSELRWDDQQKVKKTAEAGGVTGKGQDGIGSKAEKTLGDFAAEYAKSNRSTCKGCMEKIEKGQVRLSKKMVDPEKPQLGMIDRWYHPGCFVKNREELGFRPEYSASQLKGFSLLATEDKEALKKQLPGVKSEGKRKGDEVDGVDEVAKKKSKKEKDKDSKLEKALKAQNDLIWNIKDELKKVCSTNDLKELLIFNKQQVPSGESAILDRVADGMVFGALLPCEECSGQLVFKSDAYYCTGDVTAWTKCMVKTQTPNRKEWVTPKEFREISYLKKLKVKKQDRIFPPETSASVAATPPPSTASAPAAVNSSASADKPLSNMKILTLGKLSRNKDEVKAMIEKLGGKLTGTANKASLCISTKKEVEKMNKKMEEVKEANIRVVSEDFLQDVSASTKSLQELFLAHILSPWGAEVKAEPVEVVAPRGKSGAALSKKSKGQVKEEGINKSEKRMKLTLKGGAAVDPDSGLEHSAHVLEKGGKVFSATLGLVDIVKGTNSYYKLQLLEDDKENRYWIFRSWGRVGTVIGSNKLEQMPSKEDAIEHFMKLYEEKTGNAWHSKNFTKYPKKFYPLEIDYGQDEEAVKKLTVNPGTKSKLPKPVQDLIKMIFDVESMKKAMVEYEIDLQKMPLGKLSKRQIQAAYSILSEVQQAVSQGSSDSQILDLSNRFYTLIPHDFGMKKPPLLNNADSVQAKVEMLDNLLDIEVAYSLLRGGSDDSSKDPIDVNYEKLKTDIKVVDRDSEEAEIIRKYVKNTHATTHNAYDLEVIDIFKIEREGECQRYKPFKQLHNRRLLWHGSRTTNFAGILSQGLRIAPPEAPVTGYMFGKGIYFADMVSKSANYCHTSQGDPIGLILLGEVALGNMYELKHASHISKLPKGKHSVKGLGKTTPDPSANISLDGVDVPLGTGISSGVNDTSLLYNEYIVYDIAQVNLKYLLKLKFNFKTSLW
Source text: A PARP inhibition assay from R&D Systems was used (Cat. No. TA4669) according to instructions of the supplier.
Under cellular conditions PARP-1 poly-ADP-ribosylates a host of nuclear proteins, including topoisomerase 1, 14-3-3 g and PARP-1 itself. Thus under cellular conditions, the self-modification of PARP-1 and dimerization are regulating its activity, moreover there is a tight interplay with PARG (poly-ADP-ribosyl-glycohydroxylase).

[2] = system: D3 embryonic stem (ES) cells, neurons; test: Cell culture model for chemical ischemia and neuroprotection (calcium imaging); assay type: cell-based, mice; settings: β-methyl-cyclodextrin or filipin
Procedure: For all experiments, D3 embryonic stem (ES) cells derived from 129/sv mice [Okabe et al., 1996] were cultivated for 12 days, with passages on days 2, 4, 7 and 9 as described previously [Sommer et al., 2004]. Insult conditions: Cells (24-well plates) were pre-incubated with or without 20 nM EPO in fresh medium for 24 hours at 37° C. Cells were rinsed once with low K^+ solution (140 mM NaCl, 4.7 mM KCl, 1.2 mM KH2PO4, 2.5 mM CaCl2, 1.2 mM MgSO4, 11 mM glucose, 15 mM Hepes-NaOH, pH 7.35). Cells (either with or without EPO pre-incubation) were incubated for up to 45 min (37° C.) with either low K^+ solution or with glucose-free low K^+ solution supplemented with 1 mM KCN (chemical ischemia solution [Kume et al., 2002]). Vitality control to asses numbers of surviving neurons was performed by a brief stimulation with a low dose of glutamate (10 μM). Afterwards, cells were washed three times with ice cold phosphate buffered saline (PBS), and then proteins were harvested. Suspended cells were pelleted at 500×G, and lysed into 9M urea 4% CHAPS. The cell lysate was desalted with a NAP-10 column (Amersham Biosciences), preequilibrated with the same buffer, and protein content was determined.
Functional tests by calcium imaging were performed essentially as described [Sommer et al., 2004]. Briefly, cells were loaded with 2 μM of […] in DMEM for 45 min at 37° C. in the dark. Measurements of relative changes in [Ca^2+] were made on an inverted epifluorescence microscope (Olympus IX70 S1F2) with a Polychrom IV Monochromator (Xe-lamp, USHIO). Excitation wavelengths (λ1, λ2) and the emission wavelength were 340, 380 and 510 nm, respectively. Acquisition and analysis of data after appropriate stimulation were performed by using MetaFluor software (Universal Imaging Corporation). Image resolution was 168×129 pixels (binning 8×8, pixel size 6.8×6.8 μm). Only cells identified as neurons by morphological criteria and occasional immunostaining (not shown) and those whose calcium levels returned to the resting state after the first stimulation were taken into account. Controls included nominal zero calcium (negative) and 5 μM ionomycin (positive), 10 μM glutamate (positive) and depolarisation (55 mM K+) (positive). Pharmacological agents were applied by a multi-valve, single-output focal drug application device (ALA Scientific) with the perfusion system DAD-12. […] During each stimulation event 20 image pairs were acquired.

[3] = system: neurally differentiated V56 embryonic stem cells; test: LPS challenge, cell survival by Trypan Blue; assay type: cell-based; settings: LPS 100 ng/ml for 60 min
Procedure: as §1, §2

A 549 cells = test: LPS challenge, cell survival by Trypan Blue; assay type: cell-based; settings: LPS 100 ng/ml for 60 min
Procedure: as §1, §2

[4] = system: undifferentiated V56 embryonic stem cells; test: LPS challenge, cell survival by Trypan Blue; assay type: cell-based; settings: LPS 100 ng/ml for 60 min
Procedure: as §1, §2

3T3 fibroblasts = test: LPS challenge, cell survival by Trypan Blue; assay type: cell-based; settings: LPS 100 ng/ml for 60 min
Procedure: as §1, §2

SIR-2 = molecular target: T2, SIR-2 (Mus musculus, UniProt Q923E4); test: SIR2 activity assay (CycLex SIR2 Assay kit); assay type: biochemical, murine
T2 construct: Using a raw extract from murine embryonic stem cells; host or cells: murine embryonic stem cells (raw extract)
T2 sequence (Q923E4 2-737 limits assumed): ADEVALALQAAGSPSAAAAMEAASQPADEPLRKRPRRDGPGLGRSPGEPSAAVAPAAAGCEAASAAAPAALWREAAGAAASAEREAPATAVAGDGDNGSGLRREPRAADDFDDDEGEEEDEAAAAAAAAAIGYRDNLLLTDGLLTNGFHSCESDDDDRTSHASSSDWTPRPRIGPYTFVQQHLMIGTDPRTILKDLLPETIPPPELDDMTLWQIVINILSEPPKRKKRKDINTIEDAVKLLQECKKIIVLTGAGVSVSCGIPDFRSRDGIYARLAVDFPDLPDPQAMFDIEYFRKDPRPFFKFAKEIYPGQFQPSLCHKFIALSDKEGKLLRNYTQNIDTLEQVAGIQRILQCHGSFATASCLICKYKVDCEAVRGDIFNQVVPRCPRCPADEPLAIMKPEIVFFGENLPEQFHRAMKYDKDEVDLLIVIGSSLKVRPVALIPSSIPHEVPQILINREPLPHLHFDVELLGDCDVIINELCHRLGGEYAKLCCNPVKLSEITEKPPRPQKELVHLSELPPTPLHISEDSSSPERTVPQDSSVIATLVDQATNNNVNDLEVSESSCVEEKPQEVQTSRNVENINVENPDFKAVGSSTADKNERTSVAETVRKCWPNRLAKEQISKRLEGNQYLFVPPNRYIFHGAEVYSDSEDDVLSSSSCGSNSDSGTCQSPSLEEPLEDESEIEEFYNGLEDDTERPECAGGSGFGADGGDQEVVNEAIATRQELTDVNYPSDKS
Source text: For measurements of SIR2 activities, the quantitative test kit for NAD-dependent histone deacetylase activity CycLex® SIR2 Assay kit (Cat# CY-1151) was used according to instructions of manufacturer (CycLex Co., Ltd. 1063-103 Ohara, Tera-Sawaoka Ina, Nagano 396-0002 Japan). All substances tested in the SIR assay were cross-checked for their influence on the lysyl-endopeptidase. For this control an already deacetylated substrate peptide was used in order to measure directly lysyl-endopeptidase activity.
For measurements of SIR2 activities, the quantitative test kit for NAD-dependent histone deacetylase activity CycLex® SIR2 Assay kit (Cat# CY-1151) was used according to instructions of manufacturer (CycLex Co., Ltd. 1063-103 Ohara, Tera-Sawaoka Ina, Nagano 396-0002 Japan).

[5] = system: poly-ADP-ribosylated proteins; test: PARP inhibition under cellular conditions (Western blot of poly-ADP-ribosylated proteins); assay type: cell-based; settings: ischemic insult of neural cells by KCN/glucose deprivation; read-out: IC 50 of decrease of poly-ADP-ribosylated proteins
[6] = Blood-brain-barrier passage: HPLC of plasma and CSF
Source text: J. Gastroenterol. 66, 35ff.; Homon et al., 1987, Therapeutic Drug Monitoring 9, 236ff.).

Structure (SMILES): O=C1Nc2cccnc2Nc2ccccc21 [LS-75, 6H-pyrido[2,3-b][1,4]benzodiazepin-6-one]
- expression of inducible inflammatory markers iNOS and Cox-2 (iNOS and Cox-2): decreased expression
- reduction of secondary lesions ([1]; 44 h after induction of TBI, i.p. dosing, compared to vehicle controls): approx. 50%
- reduction of markers for cell damage (fast luxol blue and EMAP) ([1]; contralateral hippocampus, compared to controls): 40-60%
- PARP-1 inhibition (in words) (PARP-1): moderately strong PARP-1 inhibitor
- pIC50 (PARP-1; IC50 PARP-1 inhibition, R&D assay, recombinant monomeric PARP-1): 4.74 and ~4.70
- neuroprotective effect under raft-disrupting conditions [2]: does not occur
- protection from LPS challenge [3]: protect
- protection from LPS challenge (A 549 cells): protect
- protection from LPS challenge [4]: protect
- protection from LPS challenge (3T3 fibroblasts): protect
- pIC50 (SIR-2): 2.30 to 3.00
- SIR-2 inhibition (in words) (SIR-2): weak SIR 2 inhibitor; also recorded: weak SIR-2 inhibitors
- SIR-2 inhibition (in words) (SIR-2; listed as PBD/LS-75): weak inhibitory effect
- pIC50 [5]: ~6.52
- passage through the BBB ([6]; LS-75 applied directly): substantial passage
- LS-75 levels in CSF ([6]; after Pirenzepine application, after 6 h): substantial increase
- Kp ([6]; rat, in vivo, 50 mg/kg): 0.25 to 0.3
- LS-75 in CSF after Mevastatin pretreatment ([6]; rats, Mevastatin 0.15 mg/day for 14 days before oral gavage): far less
- higher concentrations in plasma after Mevastatin pretreatment ([6]; rats, Mevastatin 0.15 mg/day for 14 days before oral gavage of 50 mg Pirenzepine and LS-75): about 50%
